# Experiment: Human HepG2 cell viability assay in 384 well format
# Assay type: toxicity, cell-based
# Set-up: dose 125 nL, time 70.5 hour; concentration not given beside the values
# Settings: HepG2 cells, read-out: Inhibition
row,SMILES,cytotoxicity at 70.5 h
1,CCCS(=O)(=O)N1CCC(c2ccc(OC)cc2)CC1,-5.25%
2,CC(=O)c1sc(C(NC(=O)c2ccccc2)C2CC2)nc1C (stereo not drawn),8.83%
3,Cc1ccccc1C(NC(=O)CCCS(C)(=O)=O)C(C)(C)C (stereo not drawn),14.3%
4,Cc1nc(C)c(C(=O)N2CCCc3c(F)cccc32)o1,-5.01%
5,Cc1nc(C)c(C(=O)N2CCc3c(C)cccc32)o1,-5.23%
6,Cc1nc(C)c(C(=O)N2CCc3c(Cl)cccc32)o1,1.38%
7,COC(=O)c1ccc(Cn2cccc(C(F)(F)F)c2=O)c(OC)c1,21.6%
8,CC(C)N(CC(=O)Nc1cccc(C(=O)N(C)C)c1)C1CC1,7.53%
9,COc1ccc(CCN2CCCC(n3cncn3)C2)cc1 (stereo not drawn),-10.1%
10,CC1CN(C)CCN1C(=O)c1cccn1Cc1ccncc1 (stereo not drawn),-0.0265%
11,CN(C)c1ncccc1NC(=O)COC1CCCC1,-5.74%
12,CC1CN(Cc2cccc(CNC3CCCC3)c2)CCO1 (stereo not drawn),12.8%
13,CN(C)c1ncccc1NC(=O)COCC1CC1,-9.25%
14,FC(F)(F)Oc1ccc(CN2CCCC(n3cncn3)C2)cc1 (stereo not drawn),-10.6%
15,Cc1nc(CN(C)S(=O)(=O)c2ccccc2C(F)(F)F)no1,-5.33%
16,COc1cccnc1NC(=O)COC1CCCC1,24.8%
17,Cc1noc(C(C)N2CCN(Cc3noc(C4CC4)n3)CC2)n1 (stereo not drawn),-8.62%
18,Cc1ccc(C(NC(=O)CCNC(=O)c2ccoc2)C(F)(F)F)cc1 (stereo not drawn),-0.123%
19,O=C(c1csnn1)N1CCc2ccccc21,2.68%
20,Cc1ncc2c(n1)CCN(Cc1nc(Cc3ccccc3)no1)C2,1.16%
21,Cc1nn(-c2ccccc2)c(C)c1CC(=O)NC1CC(=O)N(C)C1 (stereo not drawn),-7.27%
22,COc1ccc(C)cc1CN1CCN(Cc2nccn2C)CC1,1.89%
23,FC(F)(F)Sc1ccccc1NCc1nc(C2CC2)no1,16.7%
24,COc1ccc(C)cc1CN1CCN(Cc2nccn2C)C(C)C1 (stereo not drawn),7.41%

row,SMILES,cytotoxicity at 70.5 h
1,CCC(CC)(CNC(=O)OC(C)(C)C)NC(=O)C1CCOCC1,-5.37%
2,O=C(NS(=O)(=O)c1cccc(C(F)(F)F)c1)c1cscn1,-10.3%
3,CCC(CC)(CNC(=O)OC(C)(C)C)NC(=O)C1CC1,16.7%
4,COc1cc(CNC2CCCN(c3cccnn3)C2)cc2c1OCO2 (stereo not drawn),-3.66%
5,Cc1cnn(CCNC(C)C(=O)Nc2ccc(Cl)cn2)c1 (stereo not drawn),-9.14%
6,Cc1cnn(CCNCC(=O)Nc2ccc(Cl)cn2)c1,-0.0591%
7,Cc1cc(CNC(=O)NCC(O)c2cccc(C(F)(F)F)c2)no1 (stereo not drawn),1.91%
8,COCCNC(=O)NC(c1ccccc1)c1ccccc1OC (stereo not drawn),-3.63%
9,CSc1ccc(NCC(=O)NCC2CC2)cc1F,-3.73%
10,COC(=O)c1cc(NC2CCN(CC(F)(F)F)C2=O)ccc1C (stereo not drawn),-1.18%
11,CC(=O)N(Cc1ncc(C)o1)C1CCN(Cc2cnc(C)s2)C1 (stereo not drawn),-6.82%
12,CN(C)C(CNC(=O)NCCS(C)(=O)=O)c1ccco1 (stereo not drawn),-4.23%
13,CC(=O)N(Cc1ncc(C)o1)C1CCN(CCn2cccn2)C1 (stereo not drawn),9.96%
14,CCN(C(=O)CN1CCn2c(C)nnc2C1)C1=CCCCC1,-17%
15,CCN(C(=O)CN1CCn2c(nnc2C2CC2)C1)C1=CCCCC1,-14.8%
16,O=C(NCc1cccnc1-n1cncn1)c1ccncc1,-4.72%
17,O=S(=O)(c1c(F)cccc1F)N1CCCC1c1nnc2n1CCCCC2 (stereo not drawn),-12.1%
18,O=C(CCn1ccccc1=O)Nc1ccc(C(=O)O)cc1,-4.88%
19,Cn1nnnc1SC1CCCN(c2cccc(F)c2)C1=O (stereo not drawn),19.4%
20,CCc1nnc(SC2CCCN(c3cccc(F)c3)C2=O)n1C (stereo not drawn),-8.7%
21,CN1CCN(CC(NCc2cccc(O)c2)c2ccccc2)CC1 (stereo not drawn),-5.45%
22,CCn1cc(NC(=O)C2CCN(Cc3ccccc3)CC2)cn1,2.21%
23,COc1ccc2oc(C(C)NC(=O)NCC(C)(C)C(N)=O)c(C)c2c1 (stereo not drawn),23.4%
24,CCCN(C(=O)CN1CCn2c(nnc2C2CC2)C1)C1=CCCCC1,-13.5%

row,SMILES,cytotoxicity at 70.5 h
1,Cc1cc(C)n(-c2cncc(NCCC(=O)NC(C)C)n2)n1,-10.2%
2,Cc1cccc2nc(CNC(=O)N3CCC(OCC4CC4)CC3)cn12,24.4%
3,O=C(Nc1nc(-c2ccccc2)ns1)N1CC[C@H](O)C1,-9.25%
4,CNC(=O)CC1CCN(C(=O)NCc2cn3c(C)cccc3n2)CC1,-14.3%
5,FC(F)(F)C1CCc2nnc(CNCc3cccs3)n2C1 (stereo not drawn),24.7%
6,CCn1cc(NC(=O)C2CCN(Cc3nc(C)c(C)s3)CC2)cn1,-5.47%
7,O=C(c1cn(-c2cccc(Cl)c2F)nn1)N1CCCSCC1,-13.2%
8,Cc1cnc(CN(C)Cc2cc3c(cc2OC(F)F)OCO3)o1,0.766%
9,Cc1cc(CN(C)S(=O)(=O)N2CCCC2c2ccc(C)o2)no1 (stereo not drawn),-9.33%
10,CN1CCN(CC(NCc2ccc(F)cc2)c2ccccc2)CC1 (stereo not drawn),17.2%
11,Cc1cnc(CN(C)C2CCN(Cc3ccc(Cl)s3)C2)o1 (stereo not drawn),-15.5%
12,Cc1cnc(CN(C)C2CCN(Cc3sc(C)nc3C)C2)o1 (stereo not drawn),29.7%
13,CN1CCN(CC(NCc2ccc(F)c(F)c2)c2ccccc2)CC1 (stereo not drawn),5.13%
14,Cc1cnc(CN(C)C2CCN(Cc3cnc(C)s3)C2)o1 (stereo not drawn),-8.23%
15,N#Cc1cccc(CNC(=O)C2=NN(c3ccccc3)C(=O)CN2)c1,9.97%
16,N#Cc1ccc(CNC(=O)C2=NN(c3ccccc3)C(=O)CN2)cc1,-7.68%
17,O=C(CNc1cccc2c1CCCC2)Nc1ccccc1Br,2.61%
18,Cc1nn(C)c(N(C)C)c1CNCc1cccc(Cn2cccn2)c1,9.51%
19,Cc1nn(C)c(N(C)C)c1CNCc1cccc(Br)c1,-5.91%
20,Cc1cccn2c(=O)cc(CN3CCCC3Cn3cncn3)nc12 (stereo not drawn),-5.2%
21,CN1CC(C(=O)NC(C)(C)CNC(=O)OC(C)(C)C)CC1=O (stereo not drawn),9.2%
22,Cc1cnn(CC2CCCN2Cc2cc(=O)n3c(C)csc3n2)c1 (stereo not drawn),-4.63%
23,Cc1nc(CN2CCN(C(=O)Cc3cccc(Cl)c3)CC2)no1,-5.05%
24,CC(C)Oc1ccc(C(=O)Cn2cnnc2[S+](C)[O-])cc1 (stereo not drawn),-7.07%

row,SMILES,cytotoxicity at 70.5 h
1,C[S+]([O-])c1nncn1CC(=O)c1ccc(OC(F)F)cc1 (stereo not drawn),-2.01%
2,O=S(=O)(c1ccc(F)cc1)N1CCN(CCCn2ccnc2)CC1,-1.51%
3,CCN1CCN(Cc2nc(C)no2)CC1,12.7%
4,C[S+]([O-])c1nncn1CC(=O)c1cccc(C(F)(F)F)c1 (stereo not drawn),-1.93%
5,CCN1CC(C(=O)NC(C)(C)CC)CC1=O (stereo not drawn),-3.27%
6,CC(C)(C)OC(=O)NCC1CCCCN1Cc1ccccn1 (stereo not drawn),1.05%
7,COC(C(=O)N1CCN(Cc2noc(C)n2)CC1)c1ccccc1 (stereo not drawn),-3.29%
8,Cc1cccn2c(=O)cc(CN3CCCC3Cn3cccn3)nc12 (stereo not drawn),-1.74%
9,Cc1ccc(S(=O)(=O)N2CCN(CCCn3ccnc3)CC2)cc1,-1.75%
10,Cc1cnc(CN2CCC(N(C)Cc3nnc(C)n3C)C2)cn1 (stereo not drawn),-0.164%
11,CCCN1CCC(NCc2ccncc2)CC1,-5.69%
12,Cc1ccc(NC(=O)c2nc(N3CCCCC3)ncc2Cl)cc1I,-7.45%
13,COc1cc(CN(C)C(=O)NCc2cccnc2OC)ccc1SC,-0.299%
14,Cc1ccc(C(=O)NCCCN(C)S(C)(=O)=O)c(=O)[nH]1,-5.2%
15,O=C(c1cc2c([nH]c1=O)CCC2)N1CCCCCC1c1ccncc1 (stereo not drawn),-6.24%
16,COc1cc(CN(C)C(=O)NCc2ccccn2)ccc1SC,15.9%
17,COc1cc(CN(C)C(=O)NC2CC2)ccc1SC,-3.48%
18,COc1cc(CN(C)C(=O)NCC(=O)NC(C)C)ccc1SC,-1.54%
19,CSc1cc2c(cc1NC(=O)NCC(=O)N(C)C)OCCO2,0.952%
20,NCC1(c2cccc(C(F)(F)F)c2)CCCCC1,-4.79%
21,Cc1cc(CN2CCc3nn(C)c(=O)cc3C2)no1,-2.94%
22,CCS(=O)(=O)N1CCCC(c2nc3ccccc3n2C(C)C)C1 (stereo not drawn),-3.94%
23,CC(CNC(=O)N1CCN(Cc2ccon2)CC1)Cc1cccs1 (stereo not drawn),-2.44%
24,CC(=O)N(C)C1CCN(C(=O)NCC(C)Cc2cccs2)CC1 (stereo not drawn),-2.57%

row,SMILES,cytotoxicity at 70.5 h
1,CC(C)(C)NC(=O)Cn1cc(C(N)=O)c(-c2ccccc2)n1,-3.41%
2,CN1CCC(N(C)C(=O)CCc2ccc(F)c(F)c2)C1=O (stereo not drawn),-6.34%
3,Oc1ncccc1-c1nc(-c2cccc(CN3CCOCC3)c2)no1,-15.1%
4,Cc1cnc(-c2nc(-c3cccc(CN4CCOCC4)c3)no2)cn1,-4.86%
5,Cc1n[nH]c(C)c1NC(=O)CN(CC(O)c1ccc(F)cc1)C1CC1 (stereo not drawn),-3.36%
6,Cc1cc(NCC2(O)CCOCC2)nc2ccccc12,-8.29%
7,O=C(c1ccc2[nH]ccc2c1)N1CCCCC1c1nc[nH]n1 (stereo not drawn),-5.67%
8,CC(C)(CNc1cc(F)ccc1F)S(C)(=O)=O,0.249%
9,CSC1(CNc2ccc(Br)cn2)CCOCC1,-2.33%
10,CN(C)C1(CNc2ncc(Br)cn2)CCOCC1,-10.2%
11,O=C(c1ccc(F)c(F)c1)N1CCCCC1c1nc[nH]n1 (stereo not drawn),-6.52%
12,CC(=O)N1CCC(CCNC(C)c2cc(C)cc(C)c2)CC1 (stereo not drawn),3.75%
13,CC(=O)N1CCC(CCNC(C)c2cc(F)cc(F)c2)CC1 (stereo not drawn),-3.81%
14,Cc1cncc(C(=O)N2CCCCC2c2nc[nH]n2)c1 (stereo not drawn),-4.36%
15,CC(CCSc1ccccc1)N1CCCN(C(N)=O)CC1 (stereo not drawn),28.8%
16,Cc1n[nH]c(C2CN(C(=O)c3ccn(C)c(=O)c3)CCO2)n1 (stereo not drawn),31.8%
17,O=C(Nc1nncs1)N(Cc1cccc(F)c1)C1CC1,-5.56%
18,Cc1cc2c(o1)CC(C)(C)CC2NC(=O)CNC(=O)C1CC1 (stereo not drawn),-2.04%
19,COc1cccc(CN(C(=O)NC2CC2)C2CCC(O)CC2)c1 (stereo not drawn),-6.74%
20,CCN(C(=O)c1cc(C)nc2ccccc12)C1CC(=O)NC1=O (stereo not drawn),-1.78%
21,O=C(c1ccncc1)N1CCn2c(nnc2-c2ccccc2)C1,-6.68%
22,O=C(c1[nH]nc(C2CC2)c1Cl)N1CCN(S(=O)(=O)c2ccccc2)CC1,18.5%

# Source: ChEMBL document CHEMBL3507680, “University of Dundee, Gates Library screen for HepG2 cell viability”
